Measurements taken from a compilation of properties of binary mixtures (doi:10.1016/j.molliq.2022.120983).

Assay: xn = mol fraction of the nth substance listed
Details: 101.3 kPa

Row | viscosity (298.1 K, x1 = 0.0588) [mPa·s] | viscosity (298.1 K, x1 = 0.1232) [mPa·s] | viscosity (313 K, x1 = 0.0588) [mPa·s] | viscosity (313 K, x1 = 0.2726) [mPa·s] | viscosity (333 K, x1 = 0.1232) [mPa·s] | viscosity (333 K, x1 = 0.2726) [mPa·s] | viscosity (298.1 K, x1 = 0.0631) [mPa·s] | viscosity (298.1 K, x1 = 0.1317) [mPa·s] | viscosity (298.1 K, x1 = 0.2879) [mPa·s] | viscosity (313 K, x1 = 0.0631) [mPa·s] | viscosity (313 K, x1 = 0.1317) [mPa·s] | viscosity (313 K, x1 = 0.2879) [mPa·s] | viscosity (333 K, x1 = 0.0631) [mPa·s] | viscosity (333 K, x1 = 0.1317) [mPa·s] | viscosity (333 K, x1 = 0.2879) [mPa·s] | Compound
1 | 5 | 9.1 | 3.18 | 18.2 | 3.64 | 10.2 | – | – | – | – | – | – | – | – | – | C[C@H](N)C(=O)[O-].C[N+](C)(C)CCO + O
2 | – | – | – | – | – | – | 4.09 | 10 | 20.9 | 2.73 | 6.4 | 12.3 | 1.82 | 3.64 | 7.3 | C[N+](C)(C)CCO.NCC(=O)[O-] + O
